The source of these data is patent publication US20220241168A1, “COMPOSITION FOR STIMULATING BETA-ENDORPHIN PRODUCTION COMPRISING SANSHOOL” (AMOREPACIFIC CORPORATION, priority 2021, published 2022).

The test system of series [1] is CB2 receptor. As to conditions: intraperitoneal administration; cited from earlier work.
The test system of series [2] is human-derived keratinocyte, HaCaT. The series can be described thus: IL-1b release from HaCaT under poly (I:C)-induced allergic contact dermatitis conditions (ELISA). As to conditions: 10 μM, poly (I:C) 15 ng/ml, 24 hours. The series is classed as cell-based. The protocol: First, a human-derived keratinocyte, HaCaT, was dispensed in a 24-well plate together with a Dulbecco's modified eagle's medium (DMEM) containing 10% fetal bovine serum (FBS), and cultured at 37° C. under 5% CO2 culture conditions for 24 hours. Afterwards, while inducing allergic contact dermatitis conditions to the HaCat with 15 ng/ml of poly (I:C), each of Example 1 (hydroxy-α-sanshool) and Example 2 (hydroxy-γ-sanshool), which were each dissolved in dimethyl sulfoxide (DMSO), were treated at 10 μM and dissolved in the medium. After 24 hours, each medium was collected, and IL-1b ELISA kit (R&D systems) was used to measure an amount of cytokine IL-1b according to a manufacturer's method.

For series [3], the system named is normal human epidermal cells, keratinocyte. Description: β-endorphin secretion from normal human epidermal keratinocytes (β-endorphin EIA kit). In kind it is cell-based. As to conditions: for amount of β-endorphin secreted from keratinocyte: 10 μM, six hours, compared to control group (FIG. 1, FIG. 2); for β-endorphin production effect: six hours (FIG. 3). The protocol: First, normal human epidermal cells, keratinocyte (Gibco), were cultured from a 6-well plate to a confluence point at 37° C. under 5% CO2 culture conditions. In an embodiment of the present disclosure, a keratinocyte-SFM (Gibco) medium was treated with 10 μM of each of hydroxy-α-sanshool (CHEMFACES®; Example 1), hydroxy-γ-sanshool (Chengdu Biopurify Phytochemicals Ltd.; Example 2), hydroxy-β-sanshool (Chengdu Biopurify Phytochemicals Ltd.; Example 3), hydroxy-ε-sanshool (Chengdu Biopurify Phytochemicals Ltd.; Example 4), cannabidiol (CBD) (Sigma-Aldrich®; Comparative Example 1), honokiol (Sigma-Aldrich®; Comparative Example 2), magnolol (Sigma-Aldrich®; Comparative Example 3), and palmitoylethanolamide (PEA) (Sigma-Aldrich®; Comparative Example 4), which are known as CB2 agonists as Comparative Examples, and cultured at 37° C. for six hours under 5% CO2 culture conditions. Afterwards, each medium was collected, and a β-endorphin EIA kit (EK-022-14, Phoenix pharmaceuticals, Belmont, Calif.) was used to quantify an amount of β-endorphin secreted from keratinocyte in each medium. Student t-test was used for statistical significance between specimens, and when a value of p-value is less than or equal to 0.05, it was analyzed as statistically significant. (*p<0.05, **p<0.01, ***p<0.001)
First, normal human epidermal cells, keratinocyte (Gibco), were cultured from a 6-well plate to a confluence point at 37° C. under 5% CO2 culture conditions. […] Afterwards, each medium was collected, and a β-endorphin EIA kit (EK-022-14, Phoenix pharmaceuticals, Belmont, Calif.) was used to quantify an amount of β-endorphin secreted from keratinocyte in each medium. Student t-test was used for statistical significance between specimens, and when a value of p-value is less than or equal to 0.05, it was analyzed as statistically significant. (*p<0.05, **p<0.01, ***p<0.001)

For series [4] the following is noted: sanshool-containing drug ingested; cited from earlier work.

`CN1CCCCC1Cn1cc(C(=O)c2cc([N+](=O)[O-])ccc2I)c2ccccc21` (centres unmarked) [AM1241]: the endorphin secretion result in series [1] is given as “had an effect on inducing endorphin secretion”.

`C/C=C/C=C/C=C\CC/C=C/C(=O)NCC(C)(C)O` [Example 1, hydroxy-α-sanshool] returned an IL-1b in series [2] of 11.29 pg/mL. The molecule `C/C=C/C=C/C=C\CC/C=C/C=C/C(=O)NCC(C)(C)O` [Example 2, hydroxy-γ-sanshool] had an IL-1b in series [2] of 11.2 pg/mL.

On to `C=CCc1ccc(O)c(-c2cc(CC=C)ccc2O)c1` [magnolol, reference compound], for which the “amount of β-endorphin secreted from keratinocyte” value in series [3] is recorded as “further decrease in an amount of β-endorphin secretion compared to a control group”.

Turning to `C=CCc1ccc(O)c(-c2ccc(O)c(CC=C)c2)c1` [honokiol, reference compound], in series [3], the “amount of β-endorphin secreted from keratinocyte” value is recorded as “further decrease in an amount of β-endorphin secretion compared to a control group”. Consider sanshool, for which the β-endorphin production effect entry in series [3] (0.00006 wt %) was “β-endorphin production effect was not shown”; in series [3] (0.006 wt % as printed) it was “production of β-endorphin was induced”. The presence in plasma entry in series [4] is “remained in plasma”.
